Test results from patent US10954244B2, “Compounds and uses thereof” (Kala Pharmaceuticals, Inc., priority 2013, dated 2021).

What was measured:
[1] = Draize-Ocular Irritation assessment; type: in vivo, Dutch-belted rabbits; conditions: topical I-2 solution during the PK studies
[2] = Physical and chemical stability of I-2 solutions at room temperature; type: physicochemical; conditions: formulation buffered in 20 mM Tris (pH 8), F127
Procedure: Solutions of I-2 were formulated with F127 or Tween 80, and under a range of pH values. Briefly, I-2 was first completely solubilized using an acidic solution (0.1 N HCl) at a high concentration of ˜5% (w/v). The final formulation was diluted to a solution consisting of 0.5% (w/v) I-2 into buffered solution containing F127 or Tween 80 as described in Table 5. Following dilution, the pH of the formulations was measured using pH indicator strips (PEHANON) and confirmed to be within expected range (±0.5 units of target pH).
Physical and chemical stability of the solutions at room temperature (20-25° C.) were assessed after 7-10 days (tfinal). Physical instability in a solution can manifest as the precipitation and sedimentation of the drug of interest and excipients over time. To assess physical stability, the formulations at tfinal were first filtered through a 300 kDa modified polyethersulfone filter membrane (Nanosep) to remove any precipitate in the solution. The concentration of I-2 in the filtrates was then measured and compared to that at t=0. The purity of I-2 in the unfiltered solution was also evaluated at tfinal, to further confirm chemical stability. This parameter is defined by the area under the signal peak that is attributed to compound I-2 as a percentage of all peaks reported by in the sample by HPLC (% peak area).

[3] = Mobility of nanoparticles in human cervicovaginal mucus (dark field microscopy); conditions: low pH of CVM
Procedure: In order to determine whether the generated nanoparticles have reduced interactions with mucins and are therefore able to move within mucus without becoming trapped, particles were incubated with human cervicovaginal mucus (CVM) and observed via dark field microscopy. In a typical experiment, 51 μL of the nanoparticle suspension was added to 20 μl of CVM. Observations were made in a minimum of three distinct and randomly selected areas of the CVM sample. Control particles with known behavior were used to qualify the CVM sample as appropriate for the assay.

[4] = Milling with Pluronic F127 to mucus penetrating particles, particle size by dynamic light scattering; type: physicochemical; conditions: formulated as MPP, milled with Pluronic F127, DPBS buffered
Source text: Compounds of the present invention synthesized in accordance with the preceding Examples were formulated as mucus penetrating particles (MPP). Specifically, compounds I-2, compound I-5, and compound I-6 were each milled in the presence of Pluronic F127 (F127) to determine whether F127 1) aids particle size reduction to several hundreds of nanometers and 2) physically (non-covalently) coats the surface of generated nanoparticles with a mucoinert coating that would minimize particle interactions with mucus constituents and prevent mucus adhesion.
A milling procedure was employed in which an aqueous dispersion containing coarse drug particles and Pluronic F127 (F127) was milled with grinding medium until particle size was reduced below 400 nm as measured by dynamic light scattering. Table 4 lists the size of particles and polydispersity index (a measure of the width of the particle size distribution) generated using this technique. In this example suspensions were buffered using DPBS (Dulbecco's Phosphate-Buffered Saline) which yields a suspension that is both isotonic and has a physiologically relevant pH.

SMILES: Cc1cc(C(=O)Nc2cc(Oc3ccc4nc(NC(=O)CN5CC[C@H](N(C)C)C5)cn4n3)ccc2C)n(C)n1 [Compound I-2]
- Draize-Ocular Irritation [1]: no irritation was seen
- physical stability of the solution [2]: major physical instability (i.e., precipitation)
- solubility in CVM [3]: soluble in the low pH of CVM

SMILES: Cc1cc(C(=O)Nc2cc(Oc3ccc4nc(NC(=O)NC5COC5)cn4n3)ccc2C)n(C)n1 [Compound I-5]
- Polydispersity Index (PDI) [4]: 0.160

SMILES: Cc1ccc(Oc2ccc3nc(NC(=O)CC4COC4)cn3n2)cc1NC(=O)c1cccc(F)c1 [Compound I-6]
- Particle Size ([4]; dynamic light scattering): 245 nm
